# Source: patent US20210163532A1, “NOVEL M[…] PEPTIDES” (University of Florida Research Foundation, Incorporated, priority 2018, published 2021)
# “Also recorded” adds a separate entry of the source. Where a SMILES comes first, the peptide text is derived from it. [ ]: non-standard residue; d: D form. dNMeA = CN[C@H](C)C(=O)O; Sar = CNCC(=O)O
# Experiments:
# KOR = target: T1, KOR (Mus musculus, UniProt P33534); experiment: 55° C. warm-water tail-withdrawal assay, antagonism of U50,488-induced antinociception; format: in vivo; details: for KOR antagonism: i.c.v. pretreatment, U50,488 10 mg/kg i.p.
# T1 construct: from tissue; host or cells: living C57Bl/6 mice (whole animal; CNS and periphery)
# [1] = In vitro metabolic stability in mouse liver microsomes
# mice [2] = experiment: Reinstatement of extinguished morphine conditioned place preference; details: for stress-induced reinstatement of morphine CPP, peripheral pretreatment: 10 mg/kg i.p., nor-BNI once 24 h prior, cyclo[D-Phe-Pro-Sar-Phe] twice, 2.5 h prior to forced swimming daily
# mice [3] = experiment: Reinstatement of extinguished ethanol conditioned place preference; format: in vivo, mouse; details: 0.01 nmol i.c.v.
# From the text: Similarly mice were place-conditioned using ethanol in a conditioned place-preference assay [Sperling, R. E., Gomes, S. M., Sypek, E. I., Carey, A. N. and McLaughlin, J. P., 2010. Endogenous kappa-opioid mediation of stress-induced potentiation of ethanol-conditioned place preference and self-administration. Psychopharmacology, 210, 199-209] with a biased conditioning paradigm (see McLaughlin, J. P., Ganno M. L., Eans, S. O., Mizrachi, E. and Paris, J. P., 2014. HIV-1 Tat protein exposure potentiates ethanol reward and reinstates extinguished ethanol-conditioned place preference. Current HIV Research, 12(6), 415-423). […] Mice were then pretreated once daily for two days with vehicle (50% DMSO in 0.9% saline, i.c.v.) or cyclo[D-Phe-Pro-Sar-Phe] (0.01 nmol, i.c.v.) and exposed to two days of forced swim stress or an additional cycle of ethanol place conditioning as described above.
# C57Bl/6 mice = experiment: Reinstatement of extinguished cocaine conditioned place preference
# KOR KO mice = details: 200 nmol i.c.v.; β-FNA 5 mg/kg s.c. −24 h
# μ opioid receptor = target: T2, μ opioid receptor (Mus musculus, UniProt P42866); experiment: 55° C. warm-water tail-withdrawal assay, antagonism of morphine-mediated antinociception; format: in vivo; details: 30 nmol i.c.v., 2.5 h pretreatment
# T2 construct: mice are pretreated with the compound of the invention; from tissue; host or cells: living C57Bl/6 mice (whole animal)
# MOR KO mice = experiment: Opioid receptor selectivity of antinociception, tail-withdrawal assay in MOR KO mice; format: in vivo, mouse; details: i.c.v.
# δ opioid receptor = target: T3, δ opioid receptor (Mus musculus, UniProt P32300); experiment: 55° C. warm-water tail-withdrawal assay, antagonism of SNC80-mediated antinociception; format: in vivo; details: 30 nmol i.c.v., 2.5 h pretreatment
# T3 construct: from tissue; host or cells: living C57Bl/6 mice (whole animal)
# [4] = liver microsomes, apparent t1/2 in mouse liver microsomes, mouse liver microsomes, 37° C.
# T1 sequence (P33534 whole entry): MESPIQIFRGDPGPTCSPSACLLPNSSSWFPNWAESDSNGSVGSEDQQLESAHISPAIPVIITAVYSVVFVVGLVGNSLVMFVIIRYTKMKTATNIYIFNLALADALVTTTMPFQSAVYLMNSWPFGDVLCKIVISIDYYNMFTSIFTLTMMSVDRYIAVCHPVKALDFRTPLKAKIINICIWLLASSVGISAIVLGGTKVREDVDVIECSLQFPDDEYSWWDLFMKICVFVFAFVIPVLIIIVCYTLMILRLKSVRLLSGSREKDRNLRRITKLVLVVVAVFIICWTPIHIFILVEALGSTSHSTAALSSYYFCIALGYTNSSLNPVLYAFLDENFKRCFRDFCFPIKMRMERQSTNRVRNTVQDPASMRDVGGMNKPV
# T3 sequence (P32300 whole entry): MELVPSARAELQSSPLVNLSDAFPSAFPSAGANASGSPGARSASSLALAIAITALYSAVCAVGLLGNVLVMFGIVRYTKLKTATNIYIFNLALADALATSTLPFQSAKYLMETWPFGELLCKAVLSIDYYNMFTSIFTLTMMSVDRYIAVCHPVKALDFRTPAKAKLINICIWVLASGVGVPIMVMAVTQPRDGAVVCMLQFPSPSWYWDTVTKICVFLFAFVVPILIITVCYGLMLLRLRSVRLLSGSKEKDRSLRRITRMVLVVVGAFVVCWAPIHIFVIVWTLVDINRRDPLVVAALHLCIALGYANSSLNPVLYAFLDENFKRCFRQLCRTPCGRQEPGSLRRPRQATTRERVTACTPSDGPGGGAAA
# T2 sequence (P42866 whole entry): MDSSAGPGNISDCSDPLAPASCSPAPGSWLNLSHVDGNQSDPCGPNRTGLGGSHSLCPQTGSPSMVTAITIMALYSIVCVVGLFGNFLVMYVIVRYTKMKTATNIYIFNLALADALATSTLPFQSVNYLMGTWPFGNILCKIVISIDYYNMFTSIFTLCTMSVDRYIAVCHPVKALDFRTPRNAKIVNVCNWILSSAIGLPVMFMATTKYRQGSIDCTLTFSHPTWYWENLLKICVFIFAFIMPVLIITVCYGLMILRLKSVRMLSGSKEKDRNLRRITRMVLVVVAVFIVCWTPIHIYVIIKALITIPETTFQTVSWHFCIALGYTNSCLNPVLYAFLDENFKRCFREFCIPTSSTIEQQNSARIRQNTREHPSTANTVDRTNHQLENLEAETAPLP
compound,measurement,setting,value
C[C@@H]1C(=O)N[C@@H](Cc2ccccc2)C(=O)N[C@H](Cc2ccccc2)C(=O)N2CCC[C@H]2C(=O)N1C [cyclo[D-Phe-Pro-D-NMe-Ala-Phe]] (cyclo(F[dF]P[dNMeA])),KOR antagonism,KOR,did not exhibit KOR antagonist activity
same,half-life,[1]; [4],12 min
"O=C1N[C@H](Cc2c[nH]c3ccccc23)C(=O)N[C@@H](Cc2ccccc2)C(=O)N2CCC[C@@H]2C(=O)N[C@H]1Cc1ccccc1 [[D-Trp]CJ-15,208, reference compound] (cyclo(F[dP]F[dW]))",half-life,[1]; microsomes,11 min
"Oc1ccc2c3c1O[C@H]1c4[nH]c5c(c4C[C@@]4(O)[C@@H](C2)N(CC2CC2)CC[C@]314)C[C@@]1(O)[C@H]2Cc3ccc(O)c4c3[C@@]1(CCN2CC1CC1)[C@H]5O4 [nor-BNI, nor-binaltorphimine, reference compound]","stress-induced reinstatement of morphine CPP, peripheral pretreatment",mice [2],prevented stress-induced reinstatement
CN1CC(=O)N[C@@H](Cc2ccccc2)C(=O)N[C@H](Cc2ccccc2)C(=O)N2CCC[C@H]2C1=O [cyclo[D-Phe-Pro-Sar-Phe]] (cyclo(F[dF]P[Sar])),stress- and ethanol-induced reinstatement of ethanol CPP (FIG. 11),mice [3],prevented both stress- and ethanol-induced reinstatement of ethanol CPP
same,stress-induced reinstatement of ethanol CPP,mice [3]; −2 h,prevented stress-induced reinstatement of ethanol CPP
same,"morphine-induced reinstatement of morphine-CPP, lower dose",mice [2]; 0.01 nmol i.c.v.,did not have significant effects
same,reinstatement of extinguished morphine CPP by compound alone,mice [2]; 0.01 nmol i.c.v.,did not directly reinstate extinguished CPP
same,stress-induced reinstatement of morphine CPP,"mice [2]; 0.01 nmol i.c.v., −2.5 h",prevented stress-induced reinstatement of morphine CPP
same,morphine-induced reinstatement of morphine-CPP,"mice [2]; 0.03 nmol i.c.v., 5 min pretreatment",prevented morphine-induced reinstatement of morphine-CPP
same,"stress-induced reinstatement of morphine CPP, peripheral pretreatment",mice [2],prevented stress-induced reinstatement
same,cocaine-induced reinstatement of cocaine CPP,"C57Bl/6 mice; 0.01 nmol i.c.v., 5 min pretreatment",prevented cocaine-induced reinstatement
same,reinstatement of cocaine CPP by compound alone,"C57Bl/6 mice; 0.01 nmol i.c.v., no stress or cocaine",did not induce reinstatement
same,stress-induced reinstatement of cocaine CPP,"C57Bl/6 mice; 0.01 nmol i.c.v., −1.5 h",prevented stress-induced reinstatement of cocaine CPP
same,"stress-induced reinstatement of cocaine CPP, oral","C57Bl/6 mice; 30 mg/kg and 60 mg/kg p.o., −2.5 h",prevented stress-induced reinstatement of cocaine CPP
same,stress- and cocaine-induced reinstatement of CPP after oral administration (FIG. 10B),C57Bl/6 mice; p.o.,prevented both stress- and cocaine-induced reinstatement of CPP after oral administration
same,antinociception in KOR KO mice pretreated with MOR-selective antagonist β-FNA,KOR KO mice,completely inhibited
same,"antagonism of U50,488-induced antinociception after i.p. administration","KOR; 2.5 h pretreatment, i.p.","dose-dependent antagonism of U50,488-induced antinociception"
same,KOR antagonism,KOR,"significantly antagonized KOR in a dose-dependent manner; also recorded: significant antagonism of only the KOR-selective agonist U50,488"
same,"dose giving significant blockade of U50,488-induced antinociception (KOR antagonism)","KOR; i.c.v., 2.5 h pretreatment",1 pmol
same,KOR antagonism after oral administration,"KOR; p.o., 2.5 h after administration",demonstrated KOR antagonism
same,"antagonism of centrally administered (i.c.v.) U50,488 after oral administration","KOR; p.o., U50,488 i.c.v.","dose-dependently antagonized i.c.v. U50,488"
same,morphine-mediated antinociception after pretreatment,μ opioid receptor,100±0%
same,antinociception in opioid receptor KO mice,MOR KO mice; 1 nmol dose,significantly impaired only in MOR KO mice
same,antinociception ED50 (and 95% C.I.) in MOR KO mice,MOR KO mice; MOR KO mice,58.2 (17.4-558) nmol
same,SNC80-mediated antinociception after pretreatment,δ opioid receptor,87.1±7.7%
same,half-life,[1]; [4],60 min
